The values below come from patent publication US20060141047A1, “Methods and compositions for delivery of catecholic butanes for treatment of obesity” (priority 2003, published 2006).

The nature of series [1]: Maximum amount of M4N dissolved in Cremaphor EL/ethanol/saline solvent. As to conditions: 6% Cremaphor EL, 6% ethanol, 88% saline. The series is classed as physicochemical.
Description: To assess the toxicity of prolonged intraperitoneal systemic treatment with M4N, and to determine a safe dosage for the following xenograft experiments, the following toxicity test was performed.
Series [2] is described as follows: Short-term oral feeding, M4N tissue levels by HPLC. The format is in vivo, mice. The method, then:
(§1) Tissue Distribution and Toxicity Analysis Following Short-Term and Long-Term Oral Feeding. For short-term feeding experiments, 30 mg of M4N dissolved in 300 μL castor oil was orally administered to each of 6 mice. At 2 h, 4 h, and 8 h post-administration time points, 2 mice were sacrificed, the organs and blood were collected, and the M4N extracted and quantitated as described below. In long-term feeding experiments, mice were fed food balls consisting of M4N dissolved in corn oil and Basal Mix (Harlan Teklad; Madison, Wis.; Cat. # TD 02273) for 14 weeks. Food balls weighed 9 g and contained 242 mg M4N each. Two mice, one male and one female, were reserved for long-term drug retention studies; and fourteen mice, both male and female, were used for long-term drug toxicity studies. At the end of feeding, mice were sacrificed, the organs and blood were collected, and the M4N extracted and quantitated as described below.
M4N Extraction and HPLC Analysis Following Oral Feeding. […] The dried samples were then analyzed quantitatively by HPLC and M4N was identified by mass spectroscopy using pure M4N as a standard.
In samples from short-term fed mice, dialysis was performed to further purify M4N from the tissue extracts. […] The dialysates were dried on benchtop and in a speed-vac, then analyzed by HPLC.
HPLC Quantitation of M4N. […]

The format of series [3] is in vivo. As to conditions: for % Weight Change / Weight on End Date: M4N-fed mice. The method, then: as §1, with “In long-term feeding experiments, mice were fed food balls consisting of M4N dissolved in corn oil and Basal Mix (Harlan Teklad; Madison, Wis.; Cat. # TD 02273) for 14 weeks.” left out
In particular, weight was measured on a bi-weekly or monthly basis. […] However, to assess long-term drug toxicity, only the mice that were treated for more than 20 weeks were compared. A total of 14 mice were treated for more than 20 weeks, 6 M4N-treated and 8 control mice. Since females generally eat less than males and have lower body weight, comparisons were drawn between mice of the same sex. […] The fact that the control mice, both male and female, consumed much more food than the M4N-treated mice evidences a greater preference for food in the control subjects.

The conditions of series [4]: mouse, in vivo, ip.
Description: M4N Tissue Distribution Studies Using 3H—M4N. Harlan ICR mice or C3 cell-induced tumor-bearing C57bl/6 mice were injected via tail vein or intraperitoneally with 100 μL of Cremaphor-ethanol based solvent containing 100 μCi of tritiated M4N and 60 mM of cold M4N. At the specified time post-injection, the mice were sacrificed, the organs and blood were collected, weighed, then dissolved overnight in 4 M guanidine isothiocyanate (GITC). The insoluble pellet was then further extracted with EtOH. Tritium content of both the GITC extract and the EtOH extract was measured on a Packard scintillation counter and the quantity of M4N in each organ was calculated based on the specific activity of the inoculum.
To determine the distribution of M4N in tissues over time following a single application, and also to assess the ability to deliver M4N to a distant tumor, six C3 cell-induced tumor bearing mice (A-F) were treated i.p. with ^3H— M4N as described above. At 4 hours, 6 hours, 18 hours, and 6 days post-injection, the quantities of ^3H— M4N in various tissues and the tumors were measured.
Series [5] concerns HPV-16 transformed immortal mouse epithelial cells (C3). As to conditions: intratumor injection, separately or together, U.S. Pat. No. 6,417,234 and 6,214,874; cited from earlier work.

Where “and” joins values, the source holds several entries; their conditions need not be identical. Equal values may be shown once. Read-outs that look alike come from different tables or passages of the source.

On to `COc1ccc(C[C@@H](C)[C@@H](C)Cc2ccc(OC)c(OC)c2)cc1OC` [M4N, meso-1,4-bis(3,4-dimethoxyphenyl)-2,3-dimethylbutane], for which the “Maximum amount of M4N which may be dissolved in the solvent” value in series [1] was 20 mg/mL. The “M4N in each tissue” value in series [2] (2 hours post-feeding, 30 mg M4N in castor oil, oral) is less than 2 ng per gram tissue. Further, in series [2] (post-feeding, single oral 30 mg M4N), the “Time of peak M4N levels” value is given as “roughly 4 hours”. Besides, in series [3] (Female mice treated 20 weeks), the “Average % Weight Change” value stood at 24.9% and the “Average Amount of Food Consumed” value is 258.8 g. In series [3] (length of treatment 8 weeks), the “% Weight Change” value is 20.5% and 18.1%; the “Weight on End Date” value was 26.4 g and 24.1 g. Moreover, in series [3] (length of treatment 9 weeks), the “Weight on End Date” value was 18.9 g and 24.2 g and 19.7 g. Besides, in series [3] (length of treatment 11 weeks), the “% Weight Change” value is 11.8% and the “Weight on End Date” value is on record as 20.8 g. Moreover, in series [3] (Male mice treated 20 weeks), the “Average % Weight Change” value turned out to be 21%; the “Average Amount of Food Consumed” value was 225 g and 225.0 g. Moreover, the Effect on appetite entry in series [3] (both male and female mice, long-term oral feeding) is on record as “reduced the appetite”. For the same compound, the “Effect on body weight” value in series [3] (mice, systemic or oral administration) is on record as “caused weight loss”. Also, the “Toxic effects on female mice” value in series [3] (mouse, in vivo, po) is “did not have toxic effects”. Besides, in series [4], the “M4N in the tumor” value was 294 ng M4N per gram of wet tumor, the “M4N tissue levels at 6 days post-injection relative to levels at 6 hours” value is given as 5-10% and the “Time of peak M4N tissue levels” value is recorded as “approximately 6 hours”. Moreover, the “Suppression of tumor growth” value in series [5] is listed as “some evidence of suppression of tumor growth”.
